Patent publication US11202836B2, “PSMA targeted conjugate compounds and uses thereof” (CASE WESTERN RESERVE UNIVERSITY, priority 2018, dated 2021)
*1 amine or outer side, *2 acyl side, *3 side chain or, on linkers, in order; H or OH if unused. Where a SMILES comes first, the peptide text is derived from it. [ ]: non-standard residue; d: D form. γGlu = O=C(O)[C@H](CCC(=O)[*:2])N[*:1]; X1 = O=C(C1CCC(CN[*:1])CC1)[*:2]; CO = O=C([*:1])[*:2]; Ahx = NCCCCCC(=O)O

Columns and labels:
[1] = molecular target: T1, PSMA (Homo sapiens, UniProt Q04609); test: Competitive binding assay against 3H-ZJ24 on PC3pip cells; conditions: 10 nM 3H-ZJ24, read-out: IC50, competition binding to PSMA
T1 construct: expressed in transfected cells; host or cells: PC3pip cells (retrovirally transfected, from Dr. Michel Sadelain, MSKCC)
Experimental: The assay was carried as previously reported by incubation PC3pip cells with different concentrations of drug conjugates in the presence of 10 nM N—[N—[(S)-1,3-dicarboxypropyl]carbamoyl]-S-[^3H]-methyl-L-cysteine (^3H-ZJ24) (GE Healthcare Life Sciences, Pittsburgh, Pa.). Radioactivity of cell pellet was counted by scintillation counter. The concentration required to inhibit 50% of binding was determined (IC50) by GraphPad Prism 3.0.

[2] = test system: PC3flu cells; test: Example 1 cytotoxicity assay (Dojindo CCK8), PSMA-negative cells; type: cell-based; conditions: continuous 48 hours
Experimental: (§1) PC3Pip and PC3Flu cells (2000 cells/100 μL/well) were plated in 96 well plates and rested for 24 hours to adhere to the plate surface. To each well, we added 10 μL of an 11× concentrated solution of doxorubicin or conjugate. Each drug dose was tested in groups of six wells. Dojindo CCK8 assays were used to determine relative cell survival of treated wells compared with untreated controls. This is a […] assay for determination of cell viability and proliferation. A water-soluble tetrazolium salt, WST-8, is reduced by dehydrogenase activity in the cell which produces an orange dye with relative amounts quantified by absorbance. Briefly, 10 μL assay solution was added to each well, the plate was left to incubate while orange color was produced, the absorption of the solution in the plate was read at 450 nm, and the cell viabilities were calculated.

[3] = test system: PC3Pip flank tumors; test: Example 1 mouse PC3Pip flank tumor xenograft study; type: in vivo, mice; conditions: 2 mg/kg doxorubicin or molar equivalent, day 0, 7, 14, i.v.
Experimental: All animal procedures were performed according to the protocols approved by the Institutional Animal Care and Use Committee (IACUC). Our approval is Case Western Reserve University IACUC #2015-0033. Athymic nude mice aged 6-8 weeks were implanted subcutaneously with 1×10^6 PC3Pip cells in 100 μL Matrigel on the right flank. Tumors were allowed to grow for two weeks. Mice were then treated with three doses of free doxorubicin or PSMA-1-MMCCH-Dox in PBS on day 0, 7, and 14 of the study via tail vein injection. Dose used was 2 mg/kg doxorubicin, or the equivalent molar dosage of the PSMA-targeted prodrug. Tumor dimensions were measured using calipers twice per week, and mouse weights were recorded on these days, as well. The study duration was 21 days.

[4] = test system: PC3pip cells; test: Example 1 cytotoxicity assay (Dojindo CCK8), PSMA-expressing cells; type: cell-based; conditions: continuous 48 hours
Experimental: as §1

[5] = test system: PC3Pip and PC3Flu cells; test: Example 1 in vitro cellular uptake (doxorubicin fluorescence microscopy); type: cell-based; conditions: 1 μM, 90 minutes or 48 hours
Experimental: PC3Pip and PC3flu cells (1.5×10^5) were plated on coverslips and allowed to adhere for 36-48 hours. Cells were incubated in 1 μM of free doxorubicin or the various PSMA-1-Doxorubicin conjugates in RPMI media. Similar experiments are reported widely in the literature, with doses usually in the μM range because of doxorubicin's relatively dim fluorescence, at least compared with some of the commercially available dyes used in our lab. This dose was chosen to balance that relatively dim fluorescence with a goal of attempting to maintain selectivity.
Next, cells were washed 3 times with RPMI media, fixed with 4% paraformaldehyde for 10 minutes, and washed twice with phosphate-buffered saline (PBS). The cells were counterstained with DAPI nuclear staining, mounted on microscope slides with a 50% mounting solution mixture of PBS and glycol, and the coverslips were sealed with clear nail polish. Fluorescent imaging was performed with Leica DM4000B fluorescence microscopy. DAPI imaging used the Blue filter with excitation/emission at 410/455 nm. Doxorubicin was imaged with the Texas Red filter with Ex/Em 587/612 nm.

T1 sequence (Q04609 whole entry): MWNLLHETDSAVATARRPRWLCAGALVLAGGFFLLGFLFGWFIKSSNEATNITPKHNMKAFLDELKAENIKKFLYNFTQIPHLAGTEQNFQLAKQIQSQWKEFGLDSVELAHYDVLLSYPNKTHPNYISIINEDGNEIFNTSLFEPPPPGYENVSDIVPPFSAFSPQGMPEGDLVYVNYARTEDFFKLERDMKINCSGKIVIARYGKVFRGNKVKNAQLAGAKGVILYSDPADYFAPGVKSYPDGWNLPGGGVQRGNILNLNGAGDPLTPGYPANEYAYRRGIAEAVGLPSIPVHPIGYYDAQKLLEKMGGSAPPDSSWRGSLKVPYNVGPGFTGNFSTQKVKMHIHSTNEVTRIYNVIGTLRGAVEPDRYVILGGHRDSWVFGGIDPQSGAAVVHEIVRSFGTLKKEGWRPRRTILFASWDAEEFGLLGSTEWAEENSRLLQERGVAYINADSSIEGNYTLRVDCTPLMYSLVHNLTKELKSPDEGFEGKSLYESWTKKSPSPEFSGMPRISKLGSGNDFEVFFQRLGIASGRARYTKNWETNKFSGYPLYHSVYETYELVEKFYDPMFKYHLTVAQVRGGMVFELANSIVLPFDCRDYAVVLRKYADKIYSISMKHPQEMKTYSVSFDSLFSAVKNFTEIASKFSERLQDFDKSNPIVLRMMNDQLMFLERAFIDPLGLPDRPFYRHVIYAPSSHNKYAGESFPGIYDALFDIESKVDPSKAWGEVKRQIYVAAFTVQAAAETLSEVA

NCCCC[C@H](NC(=O)[C@H](CCC(=O)O)NC(=O)[C@H](CCC(=O)O)NC(=O)[C@H](CCC(=O)O)NC(=O)CCCCCNC(=O)C1CCC(CNC(=O)CC[C@H](NC(=O)N[C@@H](CCC(=O)O)C(=O)O)C(=O)O)CC1)C(N)=O (some centres unmarked) [PSMA-1] ({Glu-CO-γGlu}-[X1][Ahx]EEEK-NH2; C-terminus assumed)
IC50 [1]: 2.3 nM

CSC[C@H](NC(=O)N[C@@H](CCC(=O)O)C(=O)O)C(=O)O [ZJ24, reference compound]
IC50 [1]: 11.7 nM

COc1cccc2c1C(=O)c1c(O)c3c(c(O)c1C2=O)C[C@@](O)(C(=O)CO)C[C@@H]3O[C@H]1C[C@H](N)[C@H](O)[C@H](C)O1 [doxorubicin]
growth inhibition of PC3Flu cells [2]: potent, equal growth inhibition
tumor growth [3]: more rapid tumor growth
weight loss over the duration of the study ([3]; 21 days): 17.3%
growth inhibition of PC3Pip cells [4]: potent, equal growth inhibition
subcellular pattern of doxorubicin signal [5]: primarily in the nucleus
uptake in PC3Pip compared with PC3Flu cells [5]: equally seen in PC3Pip and PC3Flu cell lines
